# pEC50, pIC50: −log10 of the molar value. “Also recorded” adds a separate entry of the source.
# Columns and labels:
# ERBB4 = ERBB4 (Homo sapiens, UniProt Q15303); assay: ERBBprofiler barcoded split TEV assay, ERBB4; conditions: ERBB4 UAS (split TEV) IC50, PC12 cells; constant EGF 30 ng/mL, EGFld 10 ng/mL, serotonin 1 μM; 6 h; barcode readout; relative IC50
# ERBB4 CRE = assay: ERBBprofiler barcoded CRE pathway sensor, ERBB4 co-transfected; conditions: PC12 cells; constant EGF 30 ng/mL, EGFld 10 ng/mL, serotonin 1 μM; 6 h; barcode readout; relative IC50
# HTR2A CRE = assay: ERBBprofiler barcoded CRE pathway sensor, HTR2A co-transfected; conditions: Rattus norvegicus, PC-12, 6 h, read-out: HTR2A CRE IC50
# ERBB3 = system: ERBB3; parameters: method as in Boateng et al., 2021; conditions: ELISA in MCF-7 cells; ref Boateng et al., 2021; read-out: IC50_Literature, ERBB3; cited from earlier work
# [1] = system: ERBB receptors, HTR2A, and downstream signaling pathways; assay: ERBBprofiler multiplexed barcoded assay, overall statements across all receptor batches and sensors; conditions: 10 μM compound; PC12 cells; stimulation mix
# EGFR CRE = assay: ERBBprofiler barcoded CRE pathway sensor, EGFR co-transfected; conditions: PC12 cells; constant EGF 30 ng/mL, EGFld 10 ng/mL, serotonin 1 μM; 6 h; barcode readout; relative IC50
# EGFR = system: EGFR; parameters: method as in Fry et al., 1994; conditions: phospho-WB in A-431 cells; ref Fry et al., 1994; read-out: IC50_Literature, EGFR; cited from earlier work
# phospho-ERK1/2 = assay: Western blot of p-ERK1/2 in A549 cells (EGF stimulated); assay type: cell-based; conditions: Homo sapiens, read-out: p-ERK1/2 IC50 (EGFR), Western blot quantification
# Method: Phosphorylation levels of EGFR were assessed[37] in A549 cells, while phosphorylation levels of ERBB4 were assessed in T-47D cells. Before stimulation experiments were performed, both cell types were starved overnight in 1% FCS and compounds were incubated for 1 h. […] For lysis, cells were washed 1x with PBS and lysed in a Triton X- lysis buffer (1% Triton X-100, 50 mM Tris pH7.5, 150 mM NaCl, 1 mM EGTA) containing the Complete protease inhibitor cocktail (Roche) and PhosSTOP phosphatase inhibitor (Roche). Briefly, cells were lysed and kept on ice for 10 min, sonicated 3x for 10 s at 4°C, and denatured for 10 min at 70°C. The Mini-PROTEAN Tetra Electrophoresis System and Trans-Blot Turbo Botting System (both Bio-Rad) were used for running and blotting protein gels. […] Total EGFR and ERBB4 protein levels were determined using an anti-EGFR antibody (RRID: AB_10920395) (clone A-10, dilution 1:1000, sc-373746, Santa Cruz Biotechnology) and an anti-ERBB4 antibody (RRID: AB_731579) (clone E200, dilution 1:1000, ab32375, Abcam). […] Tubulin levels were determined using an anti-Tubulin antibody (RRID: AB_477579) (dilution 1:2000, No. T 5168, Sigma-Aldrich). For quantification, phosphorylation levels of p-EGFR relative to EGFR as well as p-ERBB4 relative to ERBB4 were calculated using the Lukemiller protocol (http://lukemiller.org/index.php/2010/11/analyzing-gels-and-western-blots-with-image-j/). […]
# [2] = system: SkBr3, BT474 and HER2-overexpressing ovarian cancer cells SkOV3; parameters: method as in Moasser et al., 2001; conditions: cell growth assay in SkBr3, BT474 and SkOV3 cells; ref Moasser et al., 2001; read-out: IC50_Literature, ERBB2; cited from earlier work
# A-431 cells = system: A-431 cells; parameters: method as in Li et al., 2017; conditions: Proliferation assay, SRB method, ref Li et al., 2017, read-out: IC50_Literature, EGFR; cited from earlier work
# ERBB4 NFAT = assay: ERBBprofiler barcoded NFAT pathway sensor, ERBB4 co-transfected; assay type: cell-based, Rattus norvegicus; conditions: PC12 cells; constant EGF 30 ng/mL, EGFld 10 ng/mL, serotonin 1 μM; 6 h; barcode readout; relative IC50
# [3] = system: SK–BR–3 cells and NCI-N87 cells; parameters: method as in Li et al., 2017; conditions: Proliferation assay, SRB method, ref Li et al., 2017, read-out: IC50_Literature, ERBB2; cited from earlier work
# EGFR NFAT = assay: ERBBprofiler barcoded NFAT pathway sensor, EGFR co-transfected; assay type: cell-based, Rattus norvegicus; conditions: PC12 cells; constant EGF 30 ng/mL, EGFld 10 ng/mL, serotonin 1 μM; 6 h; barcode readout; relative IC50
# CRE sensor = CRE sensor only luciferase assay in PC12 cells; assay type: cell-based, Rattus norvegicus
# ERBB4, sequence (Q15303 26-1308): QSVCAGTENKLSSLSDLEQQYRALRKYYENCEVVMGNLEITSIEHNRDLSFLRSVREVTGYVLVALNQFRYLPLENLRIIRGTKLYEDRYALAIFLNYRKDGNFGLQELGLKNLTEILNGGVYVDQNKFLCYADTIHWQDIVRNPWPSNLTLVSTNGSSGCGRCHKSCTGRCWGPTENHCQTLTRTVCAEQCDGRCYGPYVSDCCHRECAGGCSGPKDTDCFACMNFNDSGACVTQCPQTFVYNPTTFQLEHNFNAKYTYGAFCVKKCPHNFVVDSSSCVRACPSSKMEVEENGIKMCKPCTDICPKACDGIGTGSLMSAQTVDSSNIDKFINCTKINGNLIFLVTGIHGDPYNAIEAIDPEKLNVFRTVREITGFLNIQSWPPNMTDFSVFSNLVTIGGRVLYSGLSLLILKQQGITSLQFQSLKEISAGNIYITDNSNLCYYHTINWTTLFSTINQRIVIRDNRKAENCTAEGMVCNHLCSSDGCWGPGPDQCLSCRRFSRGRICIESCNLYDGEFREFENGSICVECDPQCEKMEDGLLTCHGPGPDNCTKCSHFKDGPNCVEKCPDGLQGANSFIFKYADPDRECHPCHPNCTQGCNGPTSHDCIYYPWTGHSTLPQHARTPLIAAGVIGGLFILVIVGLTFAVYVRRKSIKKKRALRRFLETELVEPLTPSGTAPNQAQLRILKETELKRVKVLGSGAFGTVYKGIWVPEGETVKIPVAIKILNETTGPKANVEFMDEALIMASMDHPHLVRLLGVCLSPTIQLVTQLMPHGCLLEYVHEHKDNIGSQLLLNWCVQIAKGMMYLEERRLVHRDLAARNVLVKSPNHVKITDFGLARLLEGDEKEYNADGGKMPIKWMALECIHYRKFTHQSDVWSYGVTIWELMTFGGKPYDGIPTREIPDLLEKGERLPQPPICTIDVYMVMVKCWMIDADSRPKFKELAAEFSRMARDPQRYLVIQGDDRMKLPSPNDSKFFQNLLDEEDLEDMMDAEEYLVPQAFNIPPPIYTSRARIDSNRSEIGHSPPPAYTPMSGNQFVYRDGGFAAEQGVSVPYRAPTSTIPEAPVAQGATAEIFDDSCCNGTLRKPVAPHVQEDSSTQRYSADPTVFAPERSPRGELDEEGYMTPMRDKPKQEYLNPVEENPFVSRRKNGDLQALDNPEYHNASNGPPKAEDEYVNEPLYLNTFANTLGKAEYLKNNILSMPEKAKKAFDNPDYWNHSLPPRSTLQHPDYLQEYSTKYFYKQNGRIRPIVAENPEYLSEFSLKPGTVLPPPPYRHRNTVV
SMILES,pIC50 (ERBB4),ERBB4 CRE IC50 (ERBB4 CRE),pIC50 (HTR2A CRE),pIC50 (ERBB3),CRE sensor response at high compound concentration (barcoded) [1],EGFR CRE IC50 (EGFR CRE),pIC50 (EGFR),pIC50 (phospho-ERK1/2),pIC50 [2],pIC50 (A-431 cells),ERBB4 NFAT IC50 (ERBB4 NFAT),pIC50 [3],EGFR NFAT IC50 (EGFR NFAT),"effect on CRE sensor activity (luciferase), in words (CRE sensor; PC12 cells, CRE sensor only, stimulation mix)","pEC50 (CRE sensor; Rattus norvegicus, PC-12)"
"COc1cc2ncnc(Nc3cccc(Cl)c3)c2cc1OC [AG1478, AG-1478 (Tyrphostin AG-1478)]",6.18,"no effect (EGFR, ERBB2/3, ERBB4); 0.031 µM (HTR2A, small effect)",7.51,6.07,[…],"no effect (EGFR, ERBB2/3, ERBB4); 0.031 µM (HTR2A, small effect)",[…],7.04,5.70 to 6.52,,,,,,
CCOc1cc2ncc(C#N)c(Nc3ccc(OCc4ccccn4)c(Cl)c3)c2cc1NC(=O)/C=C/[C@H]1CCCN1C [Pyrotinib],6.93,,,,upregulation of the CRE sensor; also recorded: upregulated CRE sensor response,,,5.18,,7.35,"no effect (EGFR, ERBB2/3, ERBB4) - 0.576 µM (HTR2A, small effect)",7.38 to 7.41,"no effect (EGFR, ERBB2/3, ERBB4) - 0.576 µM (HTR2A, small effect)",CRE sensor activation at high compound concentrations,5.86

# Source: paper PMC10831936 (iScience, 2024)
